Data reported in PubChem BioAssay (NCI).
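These data come from cells grown in 96-well plates and exposed to compound for 48 hours at five concentrations. TGI is the concentration that stops growth completely.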

Legend:
Assay in all cases: growth of human tumour cells (NCI), 48 h
[1] = test system: NCI-H522 lung
[2] = test system: SK-MEL-5 melanoma
[3] = test system: SK-MEL-2 melanoma
[4] = test system: HOP-18 NSCLC
[5] = test system: KM20L2 colon
[6] = test system: SR leukemia
[7] = test system: K-562 leukemia
[8] = test system: NCI-H460 lung
[9] = test system: SNB-78 CNS
[10] = test system: SF-539 CNS
[11] = test system: HT29 colon
[12] = test system: LXFL 529 NSCLC
[13] = test system: U251 CNS
[14] = test system: OVCAR-5 ovarian
[15] = test system: A549 NSCLC
[16] = test system: CAKI-1 renal
[17] = test system: UACC-62 melanoma
[18] = test system: M19-MEL melanoma
[19] = test system: HCT-116 colon
[20] = test system: RXF-631 renal
[21] = test system: SK-MEL-28 melanoma
[22] = test system: IGROV1 ovarian
[23] = test system: HL-60(TB) leukemia
[24] = test system: ACHN renal
[25] = test system: HCC-2998 colon
[26] = test system: EKVX NSCLC
[27] = test system: UO-31 renal
[28] = test system: HOP-92 NSCLC
[29] = test system: SN12C renal
[30] = test system: DMS 114 small cell lung
[31] = test system: DMS 273 small cell lung
[32] = test system: OVCAR-4 ovarian
[33] = test system: DLD-1 colon
[34] = test system: SW-620 colon
[35] = test system: CCRF-CEM leukemia
[36] = test system: OVCAR-8 ovarian
[37] = test system: 786-0 renal
[38] = test system: SNB-19 CNS
[39] = test system: COLO 205 colon
[40] = test system: TK-10 renal
[41] = test system: A498 renal
[42] = test system: SF-295 CNS
[43] = test system: SF-268 CNS
[44] = test system: UACC-257 melanoma
[45] = test system: SK-OV-3 ovarian
[46] = test system: LOX IMVI melanoma
[47] = test system: MOLT-4 leukemia
[48] = test system: HOP-62 NSCLC
[49] = test system: KM12 colon
[50] = test system: M14 melanoma
[51] = test system: HCT-15 colon
[52] = test system: SNB-75 CNS
[53] = test system: NCI-H226 lung
[54] = test system: RXF 393 renal
[55] = test system: OVCAR-3 ovarian
[56] = test system: MALME-3M melanoma
[57] = test system: NCI-H23 lung
[58] = test system: RPMI-8226 leukemia
[59] = test system: T-47D breast
[60] = test system: HS 578T breast
[61] = test system: MDA-MB-435
[62] = test system: XF 498 CNS
[63] = test system: NCI/ADR-RES ovarian
[64] = test system: PC-3 prostate
[65] = test system: MDA-MB-231 breast
[66] = test system: BT-549 breast
[67] = test system: DU-145 prostate
[68] = test system: MDA-N

## COc1ccc(OC2(c3cc(OC)ccc3OC)OC(=O)c3ccccc32)cc1 (stereo not given)
[1]
  TGI: > 100 µM
[2]
  TGI: > 100 µM
[3]
  TGI: > 100 µM
[4]
  TGI: > 100 µM
[5]
  TGI: > 100 µM
[6]
  TGI: > 100 µM
[7]
  TGI: > 100 µM
[8]
  TGI: > 100 µM
[9]
  TGI: > 100 µM
[10]
  TGI: > 100 µM
[11]
  TGI: > 100 µM
[12]
  TGI: > 100 µM
[13]
  TGI: > 100 µM
[14]
  TGI: > 100 µM
[15]
  TGI: > 100 µM
[16]
  TGI: > 100 µM
[17]
  TGI: > 100 µM
[18]
  TGI: > 100 µM
[19]
  TGI: > 100 µM
[20]
  TGI: > 100 µM
[21]
  TGI: > 100 µM
[22]
  TGI: > 100 µM
[23]
  TGI: > 100 µM
[24]
  TGI: > 100 µM
[25]
  TGI: > 100 µM
[26]
  TGI: > 100 µM
[27]
  TGI: > 100 µM
[28]
  TGI: > 100 µM
[29]
  TGI: > 100 µM
[30]
  TGI: > 100 µM
[31]
  TGI: > 100 µM
[32]
  TGI: > 100 µM
[33]
  TGI: > 100 µM
[34]
  TGI: > 100 µM
[35]
  TGI: > 100 µM
[36]
  TGI: > 100 µM
[37]
  TGI: > 100 µM
[38]
  TGI: > 100 µM
[39]
  TGI: > 100 µM
[40]
  TGI: > 100 µM
[41]
  TGI: > 100 µM
[42]
  TGI: > 100 µM
[43]
  TGI: > 100 µM
[44]
  TGI: > 100 µM
[45]
  TGI: > 100 µM
[46]
  TGI: > 100 µM
[47]
  TGI: > 100 µM
[48]
  TGI: > 100 µM
[49]
  TGI: > 100 µM
[50]
  TGI: > 100 µM
[51]
  TGI: > 100 µM
[52]
  TGI: > 100 µM
[53]
  TGI: > 100 µM
[54]
  TGI: > 100 µM
[55]
  TGI: > 100 µM
[56]
  TGI: > 100 µM
[57]
  TGI: > 100 µM
[58]
  TGI: > 100 µM

## C=C(CN(C)C)C(=O)c1ccccc1OC
[1]
  TGI: 6.01 µM
[2]
  TGI: 31.1 µM
[3]
  TGI: 30 µM
[59]
  TGI: 38.5 µM
[4]
  TGI: 20.2 µM
[5]
  TGI: 50.8 µM
[6]
  TGI: > 56 µM
[7]
  TGI: > 54.1 µM
[8]
  TGI: 63.2 µM
[9]
  TGI: 62.8 µM
[60]
  TGI: 56.8 µM
[61]
  TGI: 34.2 µM
[10]
  TGI: 31.5 µM
[11]
  TGI: 46 µM
[12]
  TGI: 11.5 µM
[13]
  TGI: 66.3 µM
[14]
  TGI: 38.5 µM
[15]
  TGI: > 100 µM
[16]
  TGI: 26.1 µM
[17]
  TGI: 37 µM
[62]
  TGI: 32.3 µM
[18]
  TGI: 32.4 µM
[19]
  TGI: 30.9 µM
[21]
  TGI: 38.2 µM
[22]
  TGI: 58.1 µM
[23]
  TGI: > 35.8 µM
[24]
  TGI: 28.2 µM
[25]
  TGI: 51.1 µM
[26]
  TGI: 48.6 µM
[27]
  TGI: 31.3 µM
[28]
  TGI: 32.1 µM
[29]
  TGI: 40 µM
[63]
  TGI: 65.3 µM
[30]
  TGI: 42.5 µM
[31]
  TGI: 34 µM
[32]
  TGI: 45.9 µM
[33]
  TGI: 14.2 µM
[34]
  TGI: 19.6 µM
[35]
  TGI: 14.5 µM
[36]
  TGI: 50 µM
[37]
  TGI: 30 µM
[38]
  TGI: > 87.6 µM
[39]
  TGI: 11 µM
[40]
  TGI: 30.3 µM
[41]
  TGI: 64 µM
[42]
  TGI: > 71.9 µM
[43]
  TGI: 63.7 µM
[64]
  TGI: 31.9 µM
[44]
  TGI: 30 µM
[45]
  TGI: > 66.1 µM
[65]
  TGI: 28 µM
[46]
  TGI: 29.3 µM
[47]
  TGI: > 20.8 µM
[48]
  TGI: > 100 µM
[49]
  TGI: 63 µM
[50]
  TGI: 28.9 µM
[51]
  TGI: 33.3 µM
[52]
  TGI: 61 µM
[53]
  TGI: 62.7 µM
[54]
  TGI: 23.7 µM
[55]
  TGI: 32.9 µM
[66]
  TGI: 31.9 µM
[56]
  TGI: 16.5 µM
[67]
  TGI: > 64 µM
[57]
  TGI: 33.7 µM
[68]
  TGI: 34 µM
[58]
  TGI: > 62.7 µM

## CCOc1ccc(N(CC(=O)N2CC(=O)Nc3cc(C)c(C)cc32)C(C)=O)cc1
[1]
  TGI: > 100 µM
[2]
  TGI: > 100 µM
[3]
  TGI: > 100 µM
[4]
  TGI: > 100 µM
[5]
  TGI: > 100 µM
[6]
  TGI: > 100 µM
[7]
  TGI: > 100 µM
[8]
  TGI: > 100 µM
[9]
  TGI: > 100 µM
[10]
  TGI: > 100 µM
[11]
  TGI: > 100 µM
[12]
  TGI: > 100 µM
[13]
  TGI: > 100 µM
[14]
  TGI: > 100 µM
[15]
  TGI: > 100 µM
[16]
  TGI: > 100 µM
[17]
  TGI: > 100 µM
[62]
  TGI: > 100 µM
[18]
  TGI: > 100 µM
[19]
  TGI: > 100 µM
[21]
  TGI: > 100 µM
[23]
  TGI: > 100 µM
[24]
  TGI: > 100 µM
[25]
  TGI: > 100 µM
[26]
  TGI: > 100 µM
[27]
  TGI: > 100 µM
[28]
  TGI: > 100 µM
[29]
  TGI: > 100 µM
[31]
  TGI: > 100 µM
[32]
  TGI: > 100 µM
[33]
  TGI: > 100 µM
[34]
  TGI: > 100 µM
[35]
  TGI: > 100 µM
[36]
  TGI: > 100 µM
[37]
  TGI: > 100 µM
[38]
  TGI: > 100 µM
[39]
  TGI: > 100 µM
[40]
  TGI: > 100 µM
[42]
  TGI: > 100 µM
[43]
  TGI: > 100 µM
[44]
  TGI: > 100 µM
[45]
  TGI: > 100 µM
[46]
  TGI: > 100 µM
[47]
  TGI: > 100 µM
[48]
  TGI: > 100 µM
[49]
  TGI: > 100 µM
[50]
  TGI: > 100 µM
[51]
  TGI: > 100 µM
[52]
  TGI: > 100 µM
[53]
  TGI: > 100 µM
[54]
  TGI: > 100 µM
[55]
  TGI: > 100 µM
[56]
  TGI: > 100 µM
[57]
  TGI: > 100 µM
[58]
  TGI: > 100 µM
